{"source": "patent US20150328245A1", "about": "“Agents for Eliminating Tumour-Initiating Cells” (priority 2012, published 2015)", "format_in_all_cases": "cell-based", "key": {"[1]": {"test_system": "breast cancer cells T47D", "test": "In vitro 3D primary sphere forming stem cell assay", "experimental": "(§1) This assay measures the ability of cancer stem cells to form spheres in a serum free media where the spheres are in a suspended form. Through this assay we evaluated the potency of the compounds of the invention to kill cancer stem cells in comparison with the known chemotherapeutic agent Cisplatin.\n(§2) An exemplary procedure for the assay follows. Cells were grown in three dimensions on a plastic substrate, harvested in suspension in serum-free media, then the cells in the sample were trypsinized and a single cell suspension was formed by passing through a cell strainer. The cells were diluted according to the predetermined plating efficiency for the cell line being studied by suspending the cells in stem cell culture medium. 100 uL of this suspension was added into each well of a 96 well suspension plate, and the plate was incubated at 37 degrees Celsius in 5% CO2 atmosphere for 24 hours, then 2 uL of appropriate concentrations of the compounds of the invention and cisplatin were added into each respective well along with 100 uL of stem cell culture medium, and the plates were incubated at 37 degrees Celsius under 5% CO2 atmosphere for 72 hours. 2.5 uL of the compounds of the invention and cisplatin were added to each respective well along with 50 uL of stem cell culture medium and then the plates were incubated at 37 degrees Celsius under 5% CO2 atmosphere for 72 hours. 3 uL of appropriate concentrations of the compounds of the invention and cisplatin were added to each respective well along with 50 uL of stem cell culture medium and then the plates were incubated at 37 degrees Celsius under 5% CO2 atmosphere for 72 hours, then the spheres formed were observed under a microscope then counted and scored by size.\n(§3) Results of the in vitro 3D sphere forming stem cell assay are set forth in a tabular manner. The number in each box is the total number of spheres formed in the presence of either cisplatin or compound I-2 or compound I-3 at each drug concentration. GC refers to a growth control performed in the absence of drug or solvent (DMSO). GCD refers to a growth control performed in the absence of drug, but in the presence of DMSO."}, "[2]": {"test_system": "prostate cancer cells DU145", "test": "In vitro 3D primary sphere forming stem cell assay", "experimental": "as §1, §2, §3"}, "[3]": {"test_system": "prostate cancer cells LNCaP", "test": "In vitro 3D primary sphere forming stem cell assay", "experimental": "as §1, §2, §3"}, "[4]": {"test_system": "breast cancer cells MDA MB 231", "test": "In vitro 3D primary sphere forming stem cell assay", "experimental": "as §1, §2, §3"}, "[5]": {"test_system": "prostate cancer cells PC3", "test": "In vitro 3D primary sphere forming stem cell assay", "experimental": "as §1, §2, §3"}, "[6]": {"test_system": "breast cancer cells MCF-7", "test": "In vitro 3D primary sphere forming stem cell assay", "experimental": "as §1, §2, §3"}, "[7]": {"test_system": "L929", "test": "In vitro soft agar colony forming growth assay", "details": "L929, soft agar, one week; read-out: IC 50", "experimental": "(§4) The Soft Agar Assay for Colony Formation is considered the most stringent assay for detecting malignant transformation of cells. In this assay the cells are cultured in medium with low percentage of agar.\n(§5) An exemplary procedure for the assay follows."}, "[8]": {"test_system": "T47D", "test": "In vitro soft agar colony forming growth assay", "details": "one week", "experimental": "as §4, §5"}, "[9]": {"test_system": "MCF-7", "test": "In vitro soft agar colony forming growth assay", "details": "MCF-7, soft agar, one week", "experimental": "as §4, §5"}, "[10]": {"test_system": "LNCaP", "test": "In vitro soft agar colony forming growth assay", "details": "one week", "experimental": "as §4, §5"}, "[11]": {"test_system": "HeLa", "test": "In vitro soft agar colony forming growth assay", "details": "soft agar, one week, read-out: IC 50", "experimental": "as §4, §5"}, "[12]": {"test_system": "PC3", "test": "In vitro soft agar colony forming growth assay", "details": "one week", "experimental": "as §4, §5"}, "[13]": {"test_system": "DU145", "test": "In vitro soft agar colony forming growth assay", "details": "one week", "experimental": "as §4, §5"}, "[14]": {"test_system": "L 929", "test": "In vitro colorimetric cell death assay (MTT)", "details": "L 929, MTT, 48 hours; read-out: IC 50", "experimental": "(§6) It's an in vitro colorimetric assay for assessing cell viability where the cells are grown in Two-dimensional surface.\n(§7) An exemplary procedure for the assay follows. Cancer cells and normal cells were plated in a 96 well plate as per predetermined plating efficiency. The plate was incubated for 24 hours in a 5% CO2 atmosphere at 37 degrees Celsius, a range of concentrations of the compounds I-1, I-2 and I-3 as well as cisplatin (known chemotherapeutic agents) were added to the separate wells, the plate was incubated further for 48 hours in a 5% CO2 atmosphere, the plate was centrifuged twice at 3000 rpm for 3 minutes, the supernatant fluid was discarded, 100 uL of 0.5 mg/mL MTT solution was added and the plate was incubated for 4 hours in a 5% CO2 atmosphere at 37 degrees Celsius. The plate was then centrifuged twice at 3000 rpm for 3 minutes, supernatant, was aspirated very carefully, 200 uL DMSO was added to each well to solubilize MTT crystals and mixed well by shaking the plate, the plate was incubated for 10 minutes in a 5% CO2 atmosphere at 37 degrees Celsius, the plate placed on the shaker of an ELISA plate reader and the absorbance at 570 nm was measured, then the percentage of viable cells remaining was calculated by first subtracting the background absorbance then comparing to the absorbance of a non-drug-treated cell sample, and the results were plotted on a graph to determine the IC50 for the compounds and cisplatin."}, "[15]": {"test_system": "T47D", "test": "In vitro colorimetric cell death assay (MTT)", "details": "48 hours", "experimental": "as §6, §7"}, "[16]": {"test_system": "MCF-7", "test": "In vitro colorimetric cell death assay (MTT)", "details": "MCF-7, MTT, 48 hours", "experimental": "as §6, §7"}, "[17]": {"test_system": "LNCaP", "test": "In vitro colorimetric cell death assay (MTT)", "details": "48 hours", "experimental": "as §6, §7"}, "[18]": {"test_system": "MDAMB231", "test": "In vitro colorimetric cell death assay (MTT)", "details": "48 hours", "experimental": "as §6, §7"}, "[19]": {"test_system": "MCF10A (normal breast cell line)", "test": "In vitro colorimetric cell death assay (MTT)", "details": "48 hours, read-out: IC 50", "experimental": "as §6, §7"}, "[20]": {"test_system": "PC3", "test": "In vitro colorimetric cell death assay (MTT)", "details": "48 hours", "experimental": "as §6, §7"}, "[21]": {"test_system": "DU145", "test": "In vitro colorimetric cell death assay (MTT)", "details": "DU145, MTT, 48 hours; read-out: IC 50", "experimental": "as §6, §7"}}, "note": "Several values for one entry are separate records, joined by “and”; a condition that tells them apart may be missing. Equal values may be shown once.", "data": [{"smiles": "N.N.[Cl][Pt][Cl]", "note": "[Cisplatin, cisplatin, reference compound]", "values": [{"measurement": "# of 3D Primary Spheres Formed of Cells T47D (±SD)", "setting": "[1]; final conc. 0.125 μM", "value": "105(±10)"}, {"measurement": "# of 3D Primary Spheres Formed of Cells T47D (±SD)", "setting": "[1]; final conc. 1.25 μM", "value": "100(±7)"}, {"measurement": "# of 3D Primary Spheres Formed of Cells T47D (±SD)", "setting": "[1]; final conc. 12.5 μM", "value": "76(±25)"}, {"measurement": "# of 3D Primary Spheres Formed of Cells T47D (±SD)", "setting": "[1]; final conc. 125 μM", "value": "51(±5)"}, {"measurement": "# of 3D Primary Spheres Formed of Cells T47D (±SD)", "setting": "[1]; final conc. 1250 μM", "value": "0(±0)"}, {"measurement": "# of 3D Primary Spheres Formed of Cells DU145 (±SD)", "setting": "[2]; final conc. 0.125 μM", "value": "84(±4)"}, {"measurement": "# of 3D Primary Spheres Formed of Cells DU145 (±SD)", "setting": "[2]; final conc. 1.25 μM", "value": "70(±7)"}, {"measurement": "# of 3D Primary Spheres Formed of Cells DU145 (±SD)", "setting": "[2]; final conc. 12.5 μM", "value": "48(±6)"}, {"measurement": "# of 3D Primary Spheres Formed of Cells DU145 (±SD)", "setting": "[2]; final conc. 125 μM", "value": "35(±4)"}, {"measurement": "# of 3D Primary Spheres Formed of Cells DU145 (±SD)", "setting": "[2]; final conc. 1250 μM", "value": "11(±3)"}, {"measurement": "# of 3D Primary Spheres Formed of Cells LNCaP (±SD)", "setting": "[3]; final conc. 0.125 μM", "value": "142(±12)"}, {"measurement": "# of 3D Primary Spheres Formed of Cells LNCaP (±SD)", "setting": "[3]; final conc. 1.25 μM", "value": "144(±8)"}, {"measurement": "# of 3D Primary Spheres Formed of Cells LNCaP (±SD)", "setting": "[3]; final conc. 12.5 μM", "value": "108(±10)"}, {"measurement": "# of 3D Primary Spheres Formed of Cells LNCaP (±SD)", "setting": "[3]; final conc. 125 μM", "value": "54(±7)"}, {"measurement": "# of 3D Primary Spheres Formed of Cells LNCaP (±SD)", "setting": "[3]; final conc. 1250 μM", "value": "9(±2)"}, {"measurement": "# of 3D Primary Spheres Formed of Cells MDA MB231 (±SD)", "setting": "[4]; final conc. 0.125 μM", "value": "124(±7) and 87(±5)"}, {"measurement": "# of 3D Primary Spheres Formed of Cells MDA MB231 (±SD)", "setting": "[4]; final conc. 1.25 μM", "value": "113(±11) and 79(±2)"}, {"measurement": "# of 3D Primary Spheres Formed of Cells MDA MB231 (±SD)", "setting": "[4]; final conc. 12.5 μM", "value": "112(±18) and 78(±5)"}, {"measurement": "# of 3D Primary Spheres Formed of Cells PC3 (±SD)", "setting": "[5]; final conc. 0.125 μM", "value": "125(±7)"}, {"measurement": "# of 3D Primary Spheres Formed of Cells PC3 (±SD)", "setting": "[5]; final conc. 1.25 μM", "value": "109(±12)"}, {"measurement": "# of 3D Primary Spheres Formed of Cells PC3 (±SD)", "setting": "[5]; final conc. 12.5 μM", "value": "80(±6)"}, {"measurement": "# of 3D Primary Spheres Formed of Cells PC3 (±SD)", "setting": "[5]; final conc. 125 μM", "value": "67(±5)"}, {"measurement": "# of 3D Primary Spheres Formed of Cells PC3 (±SD)", "setting": "[5]; final conc. 1250 μM", "value": "55(±5)"}, {"measurement": "# of 3D Primary Spheres Formed of Cells MCF-7 (±SD)", "setting": "[6]; final conc. 0.125 μM", "value": "76(±5)"}, {"measurement": "# of 3D Primary Spheres Formed of Cells MCF-7 (±SD)", "setting": "[6]; final conc. 1.25 μM", "value": "77(±5)"}, {"measurement": "# of 3D Primary Spheres Formed of Cells MCF-7 (±SD)", "setting": "[6]; final conc. 12.5 μM", "value": "68(±7)"}, {"measurement": "# of 3D Primary Spheres Formed of Cells MCF-7 (±SD)", "setting": "[6]; final conc. 125 μM", "value": "61(±7)"}, {"measurement": "# of 3D Primary Spheres Formed of Cells MCF-7 (±SD)", "setting": "[6]; final conc. 1250 μM", "value": "37(±8)"}, {"measurement": "IC50", "setting": "[7]", "value": 8.7, "unit": "µM"}, {"measurement": "IC50", "setting": "[8]", "value": 51.3, "unit": "µM"}, {"measurement": "IC50", "setting": "[9]", "value": 37.1, "unit": "µM"}, {"measurement": "IC50", "setting": "[10]", "value": 64.6, "unit": "µM"}, {"measurement": "IC50", "setting": "[11]", "value": 39.4, "unit": "µM"}, {"measurement": "IC50", "setting": "[12]", "value": 40.1, "unit": "µM"}, {"measurement": "IC50", "setting": "[13]", "value": 56.2, "unit": "µM"}, {"measurement": "IC50", "setting": "[14]", "value": 46.7, "unit": "µM"}, {"measurement": "IC50", "setting": "[15]", "value": 51.3, "unit": "µM"}, {"measurement": "IC50", "setting": "[16]", "value": 4.75, "unit": "µM"}, {"measurement": "IC50", "setting": "[17]", "value": 64.6, "unit": "µM"}, {"measurement": "IC50", "setting": "[18]", "value": 82.3, "unit": "µM"}, {"measurement": "IC50", "setting": "[19]", "value": 36.3, "unit": "µM"}, {"measurement": "IC50", "setting": "[20]", "value": 40.1, "unit": "µM"}, {"measurement": "IC50", "setting": "[21]", "value": 56.2, "unit": "µM"}]}]}
